From patent US11767316B2, “Non-fused thiophene derivatives and their uses” (ENYO PHARMA, priority 2018, dated 2023)
Where two headings read alike, the source gives them in different places.

Test system: H1N1 (influenza A/New Caledonia/20/99)
Test: Antiviral effect on A549 cells infected with H1N1 (MUNANA neuraminidase readout)
Type: cell-based
Details: H1N1 A/New Caledonia/20/99 at MOI 0.1, 48 h post-infection, MUNANA fluorescence
Procedure: The antiviral effect of the compounds of the invention have been tested on A549 cell lines infected with H1N1 (influenza A/New Caledonia/20/99).
Human A549 cells (80,000 cells/well in a 96 well plate) were treated with a range of concentration of test compounds and immediately infected by H1N1 A/New Caledonia/20/99 virus (clinical isolate) at MOI of 0.1 in DMEM/1% Penicillin/streptomycin supplemented with 0.25 μg/ml TPCK trypsin (Sigma) and incubated at 37° C. in 5% CO2. 48 h post-infection, supernatants (25 μl) were collected and transferred into a 96-well black flat-bottom plate, mixed with 25 μl PBS with Ca++/Mg++(Thermo Fisher) and 50 μl of 2′-(4-Methylumbelliferyl)-α-D-N-acetylneuraminic acid sodium salt hydrate stock-solution (20 μM, MUNANA, Sigma). Plates were incubated 1 h at 37° C. and reaction is stopped by adding 100 μl of Stop Solution (glycine 0.1 M pH10.7/25% ethanol). The amount of fluorescent product released by MUNANA hydrolysis (4-MU) was measured in a Tecan spectrophotometer with excitation and emission wavelengths of 365 and 450 nm respectively.

[1] = Influenza A virus, H1N1, A549, 48 h, read-out: IC50
[2] = Influenza A virus, H1N1, A549, 48 h

Row | Compound | IC50 [1] [nM] | also measured
1 | O=C(Nc1scc(-c2ccc3c(c2)CCC3)c1C(=O)O)c1ccccc1 [#3] | 280 | –
2 | O=C(Nc1scc(C2Cc3ccccc3C2)c1C(=O)O)c1ccccc1 [#7] | 144 | –
3 | O=C(Nc1sc(Cl)c(C2Cc3ccccc3C2)c1C(=O)O)c1ccccc1 [#8] | 187 | –
4 | O=C(Nc1sc(Cl)c(C2CCc3ccccc32)c1C(=O)O)c1ccccc1 (stereo not drawn) [#49] | 130 | –
5 | O=C(Nc1sc(C2CC2)c(C2Cc3ccccc3C2)c1C(=O)O)c1ccccc1 [#51] | 52 | –
6 | O=C(Nc1scc(C2CCc3ccccc3C2)c1C(=O)O)c1ccc(NC2CCOCC2)cc1 (stereo not drawn) [#52] | 0.4 | –
7 | COC1CN(c2ccc(C(=O)Nc3scc(C4CCc5ccccc5C4)c3C(=O)O)cc2)C1 (stereo not drawn) [#53] | 4 | –
8 | O=C(Nc1scc(C2CCc3ccccc32)c1C(=O)O)c1ccc(NC2CCOCC2)cc1 (stereo not drawn) [#55] | 33.8 | –
9 | O=C(Nc1scc(C2CCc3ccccc32)c1C(=O)O)c1ccc(N2CCOCC2)cc1 (stereo not drawn) [#56] | 110 | –
10 | COC1CN(c2ccc(C(=O)Nc3scc(C4CCc5ccccc54)c3C(=O)O)cc2)C1 (stereo not drawn) [#58] | 100 | –
11 | COCCCNc1ccc(C(=O)Nc2scc(C3CCc4ccccc4C3)c2C(=O)O)cc1 (stereo not drawn) [#64] | 3.3 | –
12 | COCCNc1ccc(C(=O)Nc2scc(C3CCc4ccccc4C3)c2C(=O)O)cc1 (stereo not drawn) [#65] | 4 | –
13 | O=C(Nc1scc(C2CCc3ccccc3C2)c1C(=O)O)c1ccc(NC2CCCOC2)cc1 (stereo not drawn) [#67] | 2 | –
14 | O=C(Nc1scc(C2CCc3ccccc3C2)c1C(=O)O)c1ccc(N2CCOCC2)cc1 (stereo not drawn) [#68] | 52 | –
15 | O=C(Nc1scc(C2CCc3ccccc3C2)c1C(=O)O)c1ccc(NCC2CCOCC2)cc1 (stereo not drawn) [#69] | 3 | –
16 | O=C(Nc1scc(C2CCc3ccccc3C2)c1C(=O)O)c1cccc(N2CCOCC2)c1 (stereo not drawn) [#70] | 7.5 | –
17 | O=C(Nc1scc(C2CCc3ccccc3C2)c1C(=O)O)c1cnc(N2CCOCC2)nc1 (stereo not drawn) [#89] | 240 | –
18 | COC1CN(c2cccc(C(=O)Nc3scc(C4CCc5ccccc5C4)c3C(=O)O)c2)C1 (stereo not drawn) [#93] | 8 | –
19 | COCCOc1ccc(C(=O)Nc2scc(C3CCc4ccccc4C3)c2C(=O)O)cc1 (stereo not drawn) [#101] | 44.6 | –
20 | O=C(Nc1scc(C2CCc3ccccc3CC2)c1C(=O)O)c1ccccc1 [#122] | 744 | –
21 | O=C(Nc1scc(-c2ccc3c(c2)CCCC3)c1C(=O)O)c1ccccc1 [#123] | 133 | –

Row | Compound | IC50 [1] [nM] | also measured
22 | O=C(Nc1scc(-c2ccc3c(c2)CCCC3)c1C(=O)O)c1ccc(F)cc1 [#125] | 237 | –
23 | O=C(Nc1scc(C2CCCc3ccccc32)c1C(=O)O)c1ccc(F)cc1 (stereo not drawn) [#126] | 237 | –
24 | COc1cc(C(=O)Nc2scc(C3CCc4ccccc4C3)c2C(=O)O)ccc1NCC1CCOCC1 (stereo not drawn) [#127] | 1.8 | –
25 | O=C(Nc1scc(C2CCc3ccccc3C2)c1C(=O)O)c1ccc(NCC2CCCCC2)cc1 (stereo not drawn) [#128] | 0.8 | –
26 | O=C(Nc1scc(C2CCc3ccccc3C2)c1C(=O)O)c1ccccc1N1CCOCC1 (stereo not drawn) [#129] | 460 | –
27 | O=C(Nc1scc(C2CCc3ccccc3C2)c1C(=O)O)c1ccccc1CN1CCOCC1 (stereo not drawn) [#130] | 560 | –
28 | O=C(Nc1scc(C2CCc3ccccc3C2)c1C(=O)O)c1ccc(NC(CO)C2CCOCC2)cc1 (stereo not drawn) [#131] | 110 | –
29 | CN(CC1CCOCC1)c1ccc(C(=O)Nc2scc(C3CCc4ccccc4C3)c2C(=O)O)cc1 (stereo not drawn) [#132] | 2 | –
30 | O=C(Nc1scc(C2CCc3ccccc3C2)c1C(=O)O)c1ccc(NCCCCO)cc1 (stereo not drawn) [#133] | 50 | –
31 | O=C(Nc1scc(C2CCc3ccccc3C2)c1C(=O)O)c1ccc(NCC2CCOCC2)c(O)c1 (stereo not drawn) [#134] | 24 | –
32 | COCCCCNc1ccc(C(=O)Nc2scc(C3CCc4ccccc4C3)c2C(=O)O)cc1 (stereo not drawn) [#135] | 3 | –
33 | O=C(Nc1scc(C2CCc3ccccc3C2)c1C(=O)O)c1ccc(NCC2(O)CCOCC2)cc1 (stereo not drawn) [#136] | 30 | –
34 | COc1cc(C(=O)Nc2scc(C3CCc4ccccc4C3)c2C(=O)O)cc(OC)c1NCC1CCOCC1 (stereo not drawn) [#137] | 4.2 | –
35 | O=C(Nc1scc(C2CCc3ccccc3C2)c1C(=O)O)c1ccc(NCC2CCS(=O)(=O)CC2)cc1 (stereo not drawn) [#138] | 22 | –
36 | O=C(Nc1scc(C2CCc3ccccc3C2)c1C(=O)O)c1ccc(N2CC3CC(C2)O3)cc1 (stereo not drawn) [#139] | 15 | –
37 | O=C(Nc1scc(C2CCc3ccccc3C2)c1C(=O)O)c1ccc(N2C[C@H]3C[C@@H]2CO3)cc1 (stereo partly drawn) [#141] | 2.7 | –
38 | O=C(Nc1scc(C2CCc3ccccc3C2)c1C(=O)O)c1ccc(N2CC3CCC(C2)O3)cc1 (stereo not drawn) [#142] | 0.3 | –
39 | C[C@H]1CN(c2ccc(C(=O)Nc3scc(C4CCc5ccccc5C4)c3C(=O)O)cc2)CCO1 (stereo partly drawn) [#143] | 4 | –
40 | O=C(Nc1scc(C2CCc3ccccc3C2)c1C(=O)O)c1ccc(N2C3CCC2COC3)cc1 (stereo not drawn) [#144] | 4 | –
41 | C[C@@H]1COCCN1c1ccc(C(=O)Nc2scc(C3CCc4ccccc4C3)c2C(=O)O)cc1 (stereo partly drawn) [#145] | 32 | –
42 | C[C@H]1COCCN1c1ccc(C(=O)Nc2scc(C3CCc4ccccc4C3)c2C(=O)O)cc1 (stereo partly drawn) [#146] | 0.5 | –

Row | Compound | IC50 [1] [nM] | also measured
43 | C[C@@H]1CN(c2ccc(C(=O)Nc3scc(C4CCc5ccccc5C4)c3C(=O)O)cc2)CCO1 (stereo partly drawn) [#147] | 8 | –
44 | C[C@@H]1CN(c2ccc(C(=O)Nc3scc(C4CCc5ccccc5C4)c3C(=O)O)cc2)C[C@H](C)O1 (stereo partly drawn) [#148] | 24 | –
45 | C[C@@H]1COC[C@H](C)N1c1ccc(C(=O)Nc2scc(C3CCc4ccccc4C3)c2C(=O)O)cc1 (stereo partly drawn) [#149] | 29 | –
46 | O=C(Nc1scc(C2CCc3ccccc3C2)c1C(=O)O)c1ccc(N2C3COCC2C3)cc1 (stereo not drawn) [#150] | 1 | –
47 | O=C(Nc1scc(C2CCc3ccccc3C2)c1C(=O)O)c1ccc(OC(F)(F)F)cc1 (stereo not drawn) [#153] | 0.4 | –
48 | COc1ccc(C(=O)Nc2scc(C3CCc4ccccc4C3)c2C(=O)O)cc1 (stereo not drawn) [#154] | 2.7 | –
49 | COc1ccc(C(=O)Nc2scc(C3CCc4ccccc4C3)c2C(=O)O)cc1OC (stereo not drawn) [#155] | 3 | –
50 | O=C(Nc1scc(C2CCc3ccccc3C2)c1C(=O)O)c1ccccc1 (stereo not drawn) [#156] | – | IC50 (read-out: IC50): 185 nM
51 | O=C(Nc1scc(C2CCc3ccccc3C2)c1C(=O)O)c1ccccc1 (stereo not drawn) [#157] | – | IC50 (read-out: IC50): 7 nM
52 | O=C(Nc1scc(C2CCc3ccccc3C2)c1C(=O)O)c1ccc(C(F)(F)F)cc1 (stereo not drawn) [#158] | 7 | –
53 | COc1ccccc1C(=O)Nc1scc(C2CCc3ccccc3C2)c1C(=O)O (stereo not drawn) [#159] | 100 | –
54 | O=C(Nc1scc(C2CCc3ccccc3C2)c1C(=O)O)c1ccccc1O (stereo not drawn) [#160] | 147 | –
55 | O=C(Nc1scc(C2CCc3ccccc3C2)c1C(=O)O)c1ccc(Cl)cc1 (stereo not drawn) [#161] | 16 | –
56 | O=C(Nc1scc(C2CCc3ccccc3C2)c1C(=O)O)c1ccccc1F (stereo not drawn) [#163] | 43 | –
57 | COc1cc(C(=O)Nc2scc(C3CCc4ccccc4C3)c2C(=O)O)ccc1F (stereo not drawn) [#164] | 8 | –
58 | CS(=O)(=O)c1ccc(C(=O)Nc2scc(C3CCc4ccccc4C3)c2C(=O)O)cc1 (stereo not drawn) [#165] | 900 | –
59 | Cc1ccc(C(=O)Nc2scc(C3CCc4ccccc4C3)c2C(=O)O)cc1 (stereo not drawn) [#166] | 39 | –
60 | O=C(Nc1scc(C2CCc3ccccc3C2)c1C(=O)O)c1cccc(Cl)c1 (stereo not drawn) [#167] | 75 | –
61 | O=C(Nc1scc(C2CCc3ccccc3C2)c1C(=O)O)c1ccc(N2CCCC2=O)cc1 (stereo not drawn) [#168] | 11 | –
62 | O=C(Nc1scc(C2CCc3ccccc3C2)c1C(=O)O)c1cccc(F)c1 (stereo not drawn) [#169] | 162 | –
63 | O=C(Nc1scc(C2CCc3ccccc3C2)c1C(=O)O)c1cccc(OC(F)F)c1 (stereo not drawn) [#170] | 18 | –

Row | Compound | IC50 [1] [nM] | also measured
64 | O=C(Nc1scc(C2CCc3ccccc3C2)c1C(=O)O)c1ccc(F)cc1 (stereo not drawn) [#171] | – | IC50 (read-out: IC50): 6 nM
65 | O=C(Nc1scc(C2CCc3ccccc3C2)c1C(=O)O)c1ccc(F)cc1 (stereo not drawn) [#172] | – | IC50 (read-out: IC50): 617 nM
66 | O=C(Nc1scc(C2CCc3ccccc3C2)c1C(=O)O)c1ccc(OC(F)F)cc1 (stereo not drawn) [#174] | – | IC50 (read-out: IC50): 0.3 nM
67 | O=C(Nc1scc(C2CCc3ccccc3C2)c1C(=O)O)c1ccc(OC(F)F)cc1 (stereo not drawn) [#175] | – | IC50 (read-out: IC50): 14 nM
68 | O=C(Nc1scc(C2CCc3ccccc3C2)c1C(=O)O)c1ccc2c(c1)OCCO2 (stereo not drawn) [#176] | 76 | –
69 | O=C(Nc1scc(C2CCc3ccccc3C2)c1C(=O)O)c1ccc2c(c1)CCO2 (stereo not drawn) [#177] | 35 | –
70 | O=C(Nc1scc(C2CCc3ccccc3C2)c1C(=O)O)c1ccc(OC2CCC2)cc1 (stereo not drawn) [#178] | 122 | –
71 | CC1(C)Cc2cc(C(=O)Nc3scc(C4CCc5ccccc5C4)c3C(=O)O)ccc2O1 (stereo not drawn) [#179] | 29 | –
72 | O=C(Nc1scc(C2CCc3ccccc3C2)c1C(=O)O)c1ccc2c(c1)CCCO2 (stereo not drawn) [#181] | 2 | –
73 | O=C(Nc1scc(C2CCc3ccccc3C2)c1C(=O)O)c1ccc(OC2CCOCC2)cc1 (stereo not drawn) [#182] | – | IC50 [2]: 3 nM
74 | O=C(Nc1scc(C2CCc3ccccc3C2)c1C(=O)O)c1ccc(N2CCCS2(=O)=O)cc1 (stereo not drawn) [#184] | – | IC50 [2]: 32 nM
75 | O=C(Nc1scc(C2=Cc3ccccc3CC2)c1C(=O)O)c1ccccc1 [#185] | 260 | –
76 | O=C(Nc1scc(C2CCc3ccccc3C2)c1C(=O)O)c1ccccn1 (stereo not drawn) [#186] | 134 | –
77 | COc1ccc(C(=O)Nc2scc(C3CCc4ccccc4C3)c2C(=O)O)nc1 (stereo not drawn) [#187] | 15 | –
78 | CC(C)(C)Oc1ccc(C(=O)Nc2scc(C3CCc4ccccc4C3)c2C(=O)O)cc1 (stereo not drawn) [#188] | 15 | –
79 | O=C(Nc1scc(C2CCc3ccc(F)cc3C2)c1C(=O)O)c1ccccc1 (stereo not drawn) [#189] | 178 | –
80 | O=C(Nc1scc(C2CCc3c(F)cccc3C2)c1C(=O)O)c1ccccc1 (stereo not drawn) [#190] | 8 | –
81 | O=C(Nc1scc(C2CCc3cc(F)ccc3C2)c1C(=O)O)c1ccccc1 (stereo not drawn) [#191] | 46 | –
